In ChEMBL document CHEMBL1158583, “3-(2-Aminocarbonylphenyl)propanoic acid analogs as potent and selective EP3 receptor antagonists. Part 3: Synthesis, metabolic stability, and biological evaluation of optically active analogs” (Bioorg Med Chem, 2010):

How the values were obtained:
[1] = (§1) AUC in rat at […], iv; format: ADME, organism-based; parameters: dose 2.7 mg/kg, route intravenous; details: plasma
[2] = (§2) Volume of distribution at steady state in rat at […], iv; format: ADME, organism-based; parameters: dose 2.7 mg/kg, route intravenous; details: in vivo, read-out: Vdss
[3] = (§3) AUC in rat at 10 mg/kg, po; format: ADME, organism-based, Plasma; parameters: dose 10 mg/kg, route oral; details: plasma
[4] = as §2; format: ADME, organism-based; parameters: dose 1.2 mg/kg, route intravenous; details: in vivo, read-out: Vdss
[5] = (§4) Oral bioavailability in rat at 10 mg/kg; format: ADME, organism-based; details: in vivo
[6] = Cmax in rat at 10 mg/kg, po; format: ADME, organism-based; parameters: dose 10 mg/kg, route oral; details: in vivo
[7] = as §1; format: ADME, organism-based; parameters: dose 1.2 mg/kg, route intravenous; details: plasma
[8] = as §1; format: ADME, organism-based; parameters: dose 1.8 mg/kg, route intravenous; details: plasma
[9] = as §2; format: ADME, organism-based; parameters: dose 1.8 mg/kg, route intravenous; details: in vivo, read-out: Vdss
[10] = Volume of distribution at steady state in rat at 2 mg/kg, iv; format: ADME, organism-based; parameters: dose 2 mg/kg, route intravenous; details: in vivo, read-out: Vdss
[11] = (§5) AUC in rat at 2 mg/kg, iv; format: ADME, organism-based, Plasma; parameters: dose 2 mg/kg, route intravenous; details: plasma
Rattus norvegicus [12] = assay: as §4; format: ADME, organism-based; details: in vivo
Rattus norvegicus [13] = assay: as §5; format: ADME, organism-based, Plasma; parameters: dose 2 mg/kg, route intravenous; details: in vivo
Rattus norvegicus [14] = assay: as §3; format: ADME, organism-based, Plasma; parameters: dose 10 mg/kg, route oral; details: in vivo

SMILES: Cc1cc(C)cc([C@@H](CC(C)C)NC(=O)c2cc(COc3ccccc3C)ccc2CCC(=O)O)c1
- AUC [1]: 890 ng·h/mL
- Vd [2]: 1.24 L/kg
- AUC [3]: 1010 ng·h/mL

SMILES: Cc1cc(C)cc([C@@H](CC(C)C)NC(=O)c2cc(COc3cc(F)ccc3F)ccc2CCC(=O)O)c1
- Vd [4]: 0.39 L/kg
- bioavailability [5]: 18%
- Cmax [6]: 190 ng/mL
- AUC [7]: 681 ng·h/mL

SMILES: Cc1cc(C)cc([C@@H](CC(C)C)NC(=O)c2cc(COc3cc(C)ccc3C)ccc2CCC(=O)O)c1
- AUC [8]: 1370 ng·h/mL
- bioavailability [5]: 54%
- Vd [9]: 0.67 L/kg
- Cmax [6]: 1350 ng/mL
- AUC [3]: 4100 ng·h/mL

SMILES: Cc1cc(C)cc(Oc2ccc(CCC(=O)O)c(C(=O)N[C@H](CC(C)C)c3cc(C)cc(C)c3)c2)c1
- Vd [10]: 0.56 L/kg
- bioavailability [5]: 21%
- AUC [11]: 1370 ng·h/mL
- Cmax [6]: 950 ng/mL
- AUC [3]: 1430 ng·h/mL

SMILES: Cc1cc(C)cc(Nc2ccc(CCC(=O)O)c(C(=O)N[C@H](CC(C)C)c3cc(C)cc(C)c3)c2)c1
- Vd [10]: 1.03 L/kg
- bioavailability (Rattus norvegicus [12]): 25%
- AUC (Rattus norvegicus [13]): 2670 ng·h/mL
- Cmax [6]: 1370 ng/mL
- AUC (Rattus norvegicus [14]): 3270 ng·h/mL
